From ChEMBL document CHEMBL4177615 (Bioorg Med Chem, 2017)

Tests used:
[1] = tested on: Plasmodium falciparum; assay: Antimalarial activity against Plasmodium falciparum 3D7 infected in ARh+ human erythrocytes at 10 uM after 42 to 48 hrs by Picogreen staining-based 96 well microplate assay; assay type: functional; conditions: read-out: GI
[2] = tested on: Plasmodium falciparum; assay: Antimalarial activity against Plasmodium falciparum 3D7 infected in ARh+ human erythrocytes at 0.1 uM after 42 to 48 hrs by Picogreen staining-based 96 well microplate assay; assay type: functional; conditions: read-out: GI
[3] = tested on: Plasmodium falciparum; assay: Antimalarial activity against Plasmodium falciparum 3D7 infected in ARh+ human erythrocytes at 0.01 uM after 42 to 48 hrs by Picogreen staining-based 96 well microplate assay; assay type: functional; conditions: read-out: GI
[4] = tested on: Plasmodium falciparum; assay: Antimalarial activity against Plasmodium falciparum 3D7 infected in ARh+ human erythrocytes at 1 uM after 42 to 48 hrs by Picogreen staining-based 96 well microplate assay; assay type: functional; conditions: read-out: GI
[5] = tested on: Plasmodium falciparum; assay: Antimalarial activity against Plasmodium falciparum 3D7 infected in ARh+ human erythrocytes after 42 to 48 hrs by Picogreen staining-based 96 well microplate assay; assay type: functional, organism-based

IC50 [5] [µM]	SMILES	inhibition of growth at 10 µM [1] [%]	inhibition of growth at 0.1 µM [2] [%]	inhibition of growth at 0.01 µM [3] [%]	inhibition of growth at 1 µM [4] [%]
0.196	Fc1ccc(Cn2c(NC3CCN(CCCc4ccccc4)CC3)nc3ccccc32)cc1	100	37	2	78
1.9	Fc1ccc(Cn2c(NC3CCN(Cc4ccccc4)CC3)nc3ccccc32)cc1	94	2	2	29
> 10	O=C(NCc1ccccc1)N1CCC(Nc2nc3ccccc3n2Cc2ccc(F)cc2)CC1	25	0	0	4
6.74	COCn1c(NC2CCN(CCc3ccc(OC)cc3)CC2)nc2ccccc21	64	0	0	5
6.85	COc1ccc(OC)c(S(=O)(=O)N2CCC(Nc3nc4ccccc4n3Cc3ccc(F)cc3)CC2)c1	61	4	5	8
> 10	O=C(N1CCOCC1)N1CCC(Nc2nc3ccccc3n2Cc2ccc(F)cc2)CC1	26	0	0	0
3.96	O=S(=O)(c1ccc(Cl)cc1)N1CCC(Nc2nc3ccccc3n2Cc2ccc(F)cc2)CC1	83	1	4	6
10	O=C(c1ccc(F)cc1)N1CCC(Nc2nc3ccccc3n2Cc2ccc(F)cc2)CC1	51	0	0	6
0.829	CC(C)CN1CCC(Nc2nc3ccccc3n2Cc2ccc(F)cc2)CC1	90	0	0	60
> 10	CC(C)S(=O)(=O)N1CCC(Nc2nc3ccccc3n2Cc2ccc(F)cc2)CC1	11	3	2	1
0.111	COc1ccc(CCN2CCC(Nc3nc4ccccc4n3Cc3ccc(Br)cc3)CC2)cc1	97	47	0	100
> 10	O=C(NCCc1ccccc1)N1CCC(Nc2nc3ccccc3n2Cc2ccc(F)cc2)CC1	49	1	8	15
6.28	O=C(Nc1ccc2c(c1)CCC2)N1CCC(Nc2nc3ccccc3n2Cc2ccc(F)cc2)CC1	66	2	1	5
8.29	Cc1ccc(S(=O)(=O)N2CCC(Nc3nc4ccccc4n3Cc3ccc(F)cc3)CC2)cc1	55	7	8	10
6.18	O=C(c1ccc(C(F)(F)F)cc1)N1CCC(Nc2nc3ccccc3n2Cc2ccc(F)cc2)CC1	66	0	3	6
> 10	O=C(c1ccccc1)N1CCC(Nc2nc3ccccc3n2Cc2ccc(F)cc2)CC1	18	0	5	8
0.24	CCC(CC)Cn1c(NC2CCN(CCc3ccc(OC)cc3)CC2)nc2ccccc21	95	16	0	100
0.416	CCCn1c(NC2CCN(CCc3ccc(OC)cc3)CC2)nc2ccccc21	100	3	0	82
2.25	Fc1ccc(Cn2c(NC3CCN(CC4CC4)CC3)nc3ccccc32)cc1	98	0	0	21
> 10	O=C(Nc1ccccc1)N1CCC(Nc2nc3ccccc3n2Cc2ccc(F)cc2)CC1	35	3	0	7
> 10	O=C(Nc1ccc(F)cc1F)N1CCC(Nc2nc3ccccc3n2Cc2ccc(F)cc2)CC1	39	0	2	4
> 10	O=C(c1ccc(Cl)cc1)N1CCC(Nc2nc3ccccc3n2Cc2ccc(F)cc2)CC1	36	3	4	5
0.029 to 0.03	CCCCCCn1c(NC2CCN(CCc3ccc(OC)cc3)CC2)nc2ccccc21	100	95	6	100
> 10	CC(C)(C)NC(=O)N1CCC(Nc2nc3ccccc3n2Cc2ccc(F)cc2)CC1	43	2	0	6
0.857	Fc1ccc(Cn2c(NC3CCN(CC4CCCCC4)CC3)nc3ccccc32)cc1	100	14	0	48
8.14	COc1ccc(NC(=O)N2CCC(Nc3nc4ccccc4n3Cc3ccc(F)cc3)CC2)c(OC)c1	57	1	0	5
0.718	Fc1ccc(Cn2c(NC3CCN(C/C=C/c4ccccc4)CC3)nc3ccccc32)cc1	100	12	1	55
0.125	Fc1ccc(Cn2c(NC3CCN(CCc4ccccc4)CC3)nc3ccccc32)cc1	100	43	9	90
3.09	CN1CCC(Nc2nc3ccccc3n2Cc2ccc(F)cc2)CC1	100	0	0	2
0.344	COc1ccc(CCN2CCC(Nc3nc4ccccc4n3Cc3ccccc3)CC2)cc1	100	14	0	82
